Like-named read-outs stand apart in the source and are kept apart here.
Assays:
[1] = test system: A2780 Human Carcinoma Cells; assay: Glucose displacement assay (ATP measurement, CellTiter-Glo); type: cell-based
Method: 2. Glucose Displacement Assay (ATP Measurement)
30.000 A2780 Human Carcinoma Cells are seeded per well in a Greiner 96-well plate. Cells are expanded and cultured in RPMI 1640 medium+GlutaMAX® with 10% FCS and 11 mM glucose, at 37° C. with 5% CO2. After 44 h, culture media is changed and washed once with PBS to starvation media consisting of RPMI 1640 medium with 1% FCS without glucose for 2 hours. Cells are then washed with KRB buffer, followed incubation for 20 min at 37° C. of the treatment mix consisting of: 60 μL KRB buffer/well with 10 μL of compound or DMSO 10×. 10 μl of rotenone is added to the mix to a final concentration of 0.5 μM. Cell plates are left for 2 min at room temperature. 20 μL of different glucose concentrations are added to the mix—typically 0.1 to 20 mM range -. Cells are incubated for another 15 min at 37° C., before measuring ATP with the CellTiter-Glo® Assay, under manufacturer's guidance, but without the equilibration step at room temperature for 30 min. In brief, 100 μl of Cell-Titer-Glo® Reagent is added to the wells containing already 100 μl of the previous reaction mix. Plates are mixed for 2 min at 800 rpm, followed by incubation at room temperature for 10 min to stabilize the luminescent signal. Luminescence is then recorded with the Tekan Ultra Evolution reader.

erythrocytes = assay: Erythrocyte dialysis assay (6-NBD-Glc, Rapid Equilibrium Dialysis); type: binding, rat; conditions: for Fluorescence intensity in buffer compartiment, 1:1 Dilution k^off / Fluorescence intensity in buffer compartiment, 1:1 Dilution k^on: 6-NBD-Glc 25 μM; for Fluorescence intensity in buffer compartiment, 6-NBD-Glc [50 μM]: absence of glucose
From the text: 3. Erythrocyte Dialysis Assay
Here 6-NBD-Glc or alternatively 2-NBD-Glc was used in dialysis based competition experiments.
Freshly isolated heparinized rat blood samples were immideately diluted (1:5) in PBS buffer to generate a stable stock solution. This stock solution was further diluted (1:1 or 1:3) for the following dialysis experiments in Rapid Equilibrium Dialysis (RED) devices (Thermo Scientific Pierce).
The aforementioned stock solution was further diluted (1:1 or 1:3 respectively) and added to the dialysis compartiment of a RED device. In parallel stock solution was diluted (1:1) with buffer containing 6 NBD Glc (25 μM).
Dialyses was started by addition of 6 NBD Glc (25 μM) in PBS Buffer (k^on) or pure PBS buffer (ko^off) respectively into the buffer compartiment. Aliquots (20 μl) were taken after defined time intervals from the buffer compartiment and fluorescence was measured in a UV plate reader (Thermovarioskan, Thermo).
As a control, free diffusion of 6-NBD-Glc (25 μM) in PBS buffer vs pure buffer was measured.
Glucose dependency was determined following the protocol described above, comparing the following solutions: 6 NBD-Glc (100 μM), 6 NBD-Glucose (100 μM)+Glucose 20 mM. Data are shown in the next table
Example 102 was investigated in a competition experiment following the same protocol using a 6-NBD-Glc solution (100 μM) in comparison to 6 NBD-Glucose (100 μM)+Example 102 (50 μM).

## 6-Desoxy-6-(3-undecenyloxypheny)-4-piperazin-1-yl-D-galactopyranose [Example 141]
[1]; read-out: IC50
  IC50: 84.8 µM

## O=[N+]([O-])c1ccc(NC[C@H]2OC(O)[C@H](O)[C@@H](O)[C@@H]2O)c2nonc12 (some centres unmarked) [Example 6-NBD-Glc, 6-(N-(7-Nitrobenz-2-oxa-1,3-diazol-4-yl)amino)-6-Deoxyglucose]
erythrocytes; 0 min
  Fluorescence intensity in buffer compartiment, 1:1 Dilution k^off: 0 AU
  Fluorescence intensity in buffer compartiment, 1:1 Dilution k^on: 55 AU
  Fluorescence intensity in buffer compartiment, NBD-Glc [50 μM] + Glc [10 mM]: 0 AU
  Fluorescence intensity in buffer compartiment, 6-NBD-Glc [50 μM]: 0 AU
erythrocytes; 15 min
  Fluorescence intensity in buffer compartiment, NBD-Glc [50 μM] + Glc [10 mM]: 7.2 AU
  Fluorescence intensity in buffer compartiment, 6-NBD-Glc [50 μM]: 7.5 AU
erythrocytes; 30 min
  Fluorescence intensity in buffer compartiment, 1:1 Dilution k^off: 3.4 AU
  Fluorescence intensity in buffer compartiment, 1:1 Dilution k^on: 50.6 AU
  Fluorescence intensity in buffer compartiment, NBD-Glc [50 μM] + Glc [10 mM]: 11.9 AU
  Fluorescence intensity in buffer compartiment, 6-NBD-Glc [50 μM]: 10.6 AU
erythrocytes; 60 min
  Fluorescence intensity in buffer compartiment, 1:1 Dilution k^off: 6.5 AU
  Fluorescence intensity in buffer compartiment, 1:1 Dilution k^on: 45.1 AU
  Fluorescence intensity in buffer compartiment, NBD-Glc [50 μM] + Glc [10 mM]: 17 AU
  Fluorescence intensity in buffer compartiment, 6-NBD-Glc [50 μM]: 11.1 AU
erythrocytes; 90 min
  Fluorescence intensity in buffer compartiment, 1:1 Dilution k^off: 12 AU
  Fluorescence intensity in buffer compartiment, 1:1 Dilution k^on: 33 AU
  Fluorescence intensity in buffer compartiment, NBD-Glc [50 μM] + Glc [10 mM]: 18.5 AU
  Fluorescence intensity in buffer compartiment, 6-NBD-Glc [50 μM]: 14.9 AU
erythrocytes; 120 min
  Fluorescence intensity in buffer compartiment, 1:1 Dilution k^off: 16.1 AU
  Fluorescence intensity in buffer compartiment, 1:1 Dilution k^on: 34 AU
  Fluorescence intensity in buffer compartiment, NBD-Glc [50 μM] + Glc [10 mM]: 20.3 AU
  Fluorescence intensity in buffer compartiment, 6-NBD-Glc [50 μM]: 15.8 AU
erythrocytes; 180 min
  Fluorescence intensity in buffer compartiment, NBD-Glc [50 μM] + Glc [10 mM]: 22.5 AU
  Fluorescence intensity in buffer compartiment, 6-NBD-Glc [50 μM]: 16 AU
erythrocytes; Glc 10 mM versus absence of glucose
  Free concentration of 6-NBD-Glc in presence of Glc [10 mM]: increased

## OC1O[C@H](CN2CCN(c3ccc(Cl)cc3)CC2)[C@H](O)[C@H](O)[C@H]1O (stereo partly drawn) [Example 102, (3R,4S,5R,6R)-6-[[4-(4-Chlorophenyl)piperazin-1-yl]methyl]tetrahydropyran-2,3,4,5-tetrol]
erythrocytes; 0 min, competition with 6-NBD-Glc
  Fluorescence intensity of 6-NBD-Glc in competition with Example 102 [25 μM]: 0 AU
erythrocytes; 15 min, competition with 6-NBD-Glc
  Fluorescence intensity of 6-NBD-Glc in competition with Example 102 [25 μM]: 4.9 AU
erythrocytes; 30 min, competition with 6-NBD-Glc
  Fluorescence intensity of 6-NBD-Glc in competition with Example 102 [25 μM]: 11.1 AU
erythrocytes; 60 min, competition with 6-NBD-Glc
  Fluorescence intensity of 6-NBD-Glc in competition with Example 102 [25 μM]: 12.5 AU
erythrocytes; 90 min, competition with 6-NBD-Glc
  Fluorescence intensity of 6-NBD-Glc in competition with Example 102 [25 μM]: 19.3 AU
erythrocytes; 120 min, competition with 6-NBD-Glc
  Fluorescence intensity of 6-NBD-Glc in competition with Example 102 [25 μM]: 25.1 AU
erythrocytes; 180 min, competition with 6-NBD-Glc
  Fluorescence intensity of 6-NBD-Glc in competition with Example 102 [25 μM]: 32.1 AU
erythrocytes; competition with 6-NBD-Glc
  Slope of fluorescence intensity vs time in comparison to control: clear increase in the slope

## COc1cc(C(=O)OC[C@H]2OC(O)[C@H](O)[C@@H](O)[C@@H]2O)cc(Cl)c1Oc1ccccc1 (some centres unmarked) [Example 138]
[1]; Homo sapiens, 10 mM Gluc, read-out: IC50 @ 10 mM Gluc
  IC50: > 100 µM
[1]; Homo sapiens, read-out: IC50
  IC50: 8.37 µM

## Methyl-2-O-(3-chloro-3′-methoxy-4-phenoxyphenylcarbonyl)-α-D-glucopyranoside [Example 124]
[1]; 10 mM Gluc, read-out: IC50 @ 10 mM Gluc
  IC50: > 100 µM
[1]; read-out: IC50
  IC50: 33.2 µM

— patent publication US11090364B2, “Conjugates of a pharmaceutical agent and a moiety capable of binding to a glucose sensing protein” (SANOFI, priority 2016, dated 2021)
